In US4317912A, “Tetracyclic indole derivatives” (Farmitalia Carlo Erba S.p.A., priority 1979, dated 1982):

Tests used:
[1] = system: spontaneously hypertensive rats (Okamoto strain); assay: Anti-hypertensive activity in conscious spontaneously hypertensive rats (Okamoto), carotid artery catheter; format: in vivo, rat (spontaneously hypertensive; conditions: for Change in blood pressure after treatment, 30' / Change in heart rate after treatment, 30' / Change in blood pressure after treatment, 60' / Change in heart rate after treatment, 60' / Change in blood pressure after treatment, 120' / Change in heart rate after treatment, 120' / Change in blood pressure after treatment, 240' / Change in heart rate after treatment, 240' / Change in blood pressure after treatment, 360' / Change in heart rate after treatment, 360': mean of 6 animals; for Effect on heart rate: oral (Table 4)
Method: Blood pressure recordings were made in conscious hypertensive unrestrained rats weighing approximately 300 g, via a catheter cronically inserted into the left common carotid artery. Implantation of arterial cannula was made under sodium pentobarbital anesthesia (50 mg/kg i.p.). A 1 cm long incision was made through the previously shaved ventral surface of the neck and the tissues overlying the trachea parted by blunt dissection to reveal the carotid artery. The polyethylene catheter used was made with PE 50 tubing, previously filled with saline containing 250 I.U./ml heparin. The tip of the cannula was pushed at least 2 cm inside the vessel toward the heart. The cannula was then firmly tied and passed beneath the skin to emerge from a small incision in the back of the neck. During the postoperative period and before the start of each recording session, the cannula was flushed through daily with saline containing heparin (250 U.I./ml). The experiments were performed two days after surgery. Drugs were administered by gastric gavage.

[2] = system: spontaneously hypertensive male rats, strain MHS; assay: Anti-hypertensive activity in spontaneously hypertensive rats (MHS), blood pressure and heart rate measured at the tail; format: in vivo, rat (spontaneously hypertensive; conditions: MHS rats; for Change in BP, 1st day, 1 hr after dose / Change in HR, 1st day, 1 hr after dose / Change in BP, 1st day, 5 hrs after dose / Change in HR, 1st day, 5 hrs after dose / Change in BP, 4th day, 1 hr after dose / Change in HR, 4th day, 1 hr after dose / Change in BP, 4th day, 5 hrs after dose / Change in HR, 4th day, 5 hrs after dose: mean of 4 animals
Method: Four spontaneously hypertensive male rats, strains MHS, weighing 250-300 g for each group were used.
The animals were treated for four consecutive days. Drugs were administered by gastric gavage, suspended in 5% arabic gum (0.2 ml/100 g body weight). Blood pressure (BP) and heart rate (HR) were measured at the tail by BP Recorder W+W. Blood pressure and heart rate were measured on the 1st and 4th day of treatment 1 hour before and 1 and 5 hours after drug administration.
*Data of LD50 from the literature. In Tables 1 and 2 are reported
the results of the study of the activity of compounds 355/1165 and
355/1166 upon the BP and HR (measured indirectly by means of a tail cuff)
of spontaneous hypertensive rats, MHS strain (4 rats each group). The
compounds were given orally, once a day for 4 consecutive days.

[3] = Acute (orientative) oral toxicity in mice; conditions: mouse, in vivo
Excerpt: The male mice for each group were orally treated with drugs at different dose levels for the determination of orientative toxicity.

[4] = system: male mice; conditions: data of LD50 from the literature; cited from earlier work

Structure (SMILES): CCOC(=O)C(C#N)CC1CN(C)C2Cc3c[nH]c4cccc(c34)CC12 (stereo not drawn) [355/1166, 2-Cyano-3-[trans-5(10→9)abeo-6-methyl-ergoline-8β]-propionic acid ethyl ester]
- Change in blood pressure after treatment, 30' ([1]; 5 mg/kg os): 0 mmHg
- Change in heart rate after treatment, 30' ([1]; 5 mg/kg os): -20 b/min
- Change in blood pressure after treatment, 60' ([1]; 5 mg/kg os): -3 mmHg
- Change in heart rate after treatment, 60' ([1]; 5 mg/kg os): -20 b/min
- Change in blood pressure after treatment, 120' ([1]; 5 mg/kg os): -15 mmHg
- Change in heart rate after treatment, 120' ([1]; 5 mg/kg os): -35 b/min
- Change in blood pressure after treatment, 240' ([1]; 5 mg/kg os): -18 mmHg
- Change in heart rate after treatment, 240' ([1]; 5 mg/kg os): -15 b/min
- Change in blood pressure after treatment, 360' ([1]; 5 mg/kg os): -10 mmHg
- Change in heart rate after treatment, 360' ([1]; 5 mg/kg os): -20 b/min
- Effectiveness compared with the reference compound (hydralazine) ([1]; 5 mg/kg per os): less effective than the reference compound
- Effect on heart rate [1]: slight bradycardia and never tachicardia
- Change in BP, 1st day, 1 hr after dose ([2]; 5 mg/kg os, 1st day): -8 mmHg
- Change in HR, 1st day, 1 hr after dose ([2]; 5 mg/kg os, 1st day): -25 b/min
- Change in BP, 1st day, 5 hrs after dose ([2]; 5 mg/kg os, 1st day): -20 mmHg
- Change in HR, 1st day, 5 hrs after dose ([2]; 5 mg/kg os, 1st day): -25 b/min
- Change in BP, 4th day, 1 hr after dose ([2]; 5 mg/kg os, 4th day): -22 mmHg
- Change in HR, 4th day, 1 hr after dose ([2]; 5 mg/kg os, 4th day): -35 b/min
- Change in BP, 4th day, 5 hrs after dose ([2]; 5 mg/kg os, 4th day): -26 mmHg
- Change in HR, 4th day, 5 hrs after dose ([2]; 5 mg/kg os, 4th day): -20 b/min
- Effect on BP ([2]; 5 mg/kg per os): lowers BP at each recording session, but its effect is more pronounced after the 4th dose
- Effectiveness compared with α-methyl-DOPA ([2]; 5 mg/kg per os): 20 times
- Hypotensive effect compared with Hydralazine, after 4th administration ([2]; 1st and 5th hours after 4th administration, 5 mg/kg per os vs Hydralazine 3 mg/kg per os): greater hypotensive effect
- Activity compared with Hydralazine, 1st day ([2]; 1st day, 5 mg/kg per os vs Hydralazine 3 mg/kg per os): less pronounced activity than Hydralazine
- LD50 at 168 h [3]: > 800 mg/kg

Structure (SMILES): CN1CC(CCC(N)=O)C2Cc3cccc4[nH]cc(c34)CC21 (stereo not drawn) [355/1226, Trans-5(10→9)abeo-6-methyl-ergoline-8β-propionamide]
- Change in blood pressure after treatment, 30' ([1]; 3 mg/kg os): -19 mmHg
- Change in heart rate after treatment, 30' ([1]; 3 mg/kg os): -33 b/min
- Change in blood pressure after treatment, 60' ([1]; 3 mg/kg os): -28 mmHg
- Change in heart rate after treatment, 60' ([1]; 3 mg/kg os): -30 b/min
- Change in blood pressure after treatment, 120' ([1]; 3 mg/kg os): -40 mmHg
- Change in heart rate after treatment, 120' ([1]; 3 mg/kg os): -23 b/min
- Change in blood pressure after treatment, 240' ([1]; 3 mg/kg os): -32 mmHg
- Change in heart rate after treatment, 240' ([1]; 3 mg/kg os): -16 b/min
- Change in blood pressure after treatment, 360' ([1]; 3 mg/kg os): -25 mmHg
- Change in heart rate after treatment, 360' ([1]; 3 mg/kg os): +4 b/min
- Hypotensive activity compared with 355/1165 and 355/1166 ([1]; 3 mg/kg per os): intermediate activity between compound 355/1165 and compound 355/1166
- Effect on heart rate [1]: slight bradycardia and never tachicardia
- Change in BP, 1st day, 1 hr after dose ([2]; 1 mg/kg os, 1st day): -32 mmHg
- Change in HR, 1st day, 1 hr after dose ([2]; 1 mg/kg os, 1st day): -20 b/min
- Change in BP, 1st day, 5 hrs after dose ([2]; 1 mg/kg os, 1st day): -27 mmHg
- Change in HR, 1st day, 5 hrs after dose ([2]; 1 mg/kg os, 1st day): +3 b/min
- Change in BP, 4th day, 1 hr after dose ([2]; 1 mg/kg os, 4th day): -21 mmHg
- Change in HR, 4th day, 1 hr after dose ([2]; 1 mg/kg os, 4th day): -5 b/min
- Change in BP, 4th day, 5 hrs after dose ([2]; 1 mg/kg os, 4th day): -42 mmHg
- Change in HR, 4th day, 5 hrs after dose ([2]; 1 mg/kg os, 4th day): -13 b/min
- Change in BP, 1st day, 1 hr after dose ([2]; 3 mg/kg os, 1st day): -47 mmHg
- Change in HR, 1st day, 1 hr after dose ([2]; 3 mg/kg os, 1st day): -20 b/min
- Change in BP, 1st day, 5 hrs after dose ([2]; 3 mg/kg os, 1st day): -57 mmHg
- Change in HR, 1st day, 5 hrs after dose ([2]; 3 mg/kg os, 1st day): -10 b/min
- Change in BP, 4th day, 1 hr after dose ([2]; 3 mg/kg os, 4th day): -40 mmHg
- Change in HR, 4th day, 1 hr after dose ([2]; 3 mg/kg os, 4th day): -40 b/min
- Change in BP, 4th day, 5 hrs after dose ([2]; 3 mg/kg os, 4th day): -42 mmHg
- Change in HR, 4th day, 5 hrs after dose ([2]; 3 mg/kg os, 4th day): -45 b/min
- Effect on BP ([2]; 1 and 3 mg/kg per os): decreases BP; especially with the higher dose, this effect is remarkable and long lasting
- Antihypertensive activity compared with Hydralazine, 1st day ([2]; 1st day, 355/1165 2 mg/kg, 355/1226 3 mg/kg per os vs Hydralazine 3 mg/kg per os): more marked antihypertensive activity
- Antihypertensive effect compared with Hydralazine, 4th day ([2]; 4th day, 355/1165 2 mg/kg, 355/1226 3 mg/kg per os vs Hydralazine 3 mg/kg per os): even greater effect
- Tolerance after repeated administration ([2]; four days, 355/1165 2 mg/kg, 355/1226 3 mg/kg, 355/1225 and 355/1229 5 mg/kg per os): tolerance does not occur after repeated administration
- Activity compared with α-methyl-DOPA ([2]; 355/1165 2 mg/kg, 355/1226 3 mg/kg per os): 50 times
- LD50 at 168 h [3]: > 800 mg/kg

Structure (SMILES): C[C@](N)(Cc1ccc(O)c(O)c1)C(=O)O [α-Methyl-DOPA, reference compound]
- LD50 (orientative toxicity in mice) [4]: 5300 mg/kg per os
- Change in BP, 1st day, 1 hr after dose ([2]; 30 mg/kg os, 1st day): -27 mmHg
- Change in HR, 1st day, 1 hr after dose ([2]; 30 mg/kg os, 1st day): +33 b/min
- Change in BP, 1st day, 5 hrs after dose ([2]; 30 mg/kg os, 1st day): -4 mmHg
- Change in HR, 1st day, 5 hrs after dose ([2]; 30 mg/kg os, 1st day): +36 b/min
- Change in BP, 4th day, 1 hr after dose ([2]; 30 mg/kg os, 4th day): -2 mmHg
- Change in HR, 4th day, 1 hr after dose ([2]; 30 mg/kg os, 4th day): +50 b/min
- Change in BP, 4th day, 5 hrs after dose ([2]; 30 mg/kg os, 4th day): 0 mmHg
- Change in HR, 4th day, 5 hrs after dose ([2]; 30 mg/kg os, 4th day): +20 b/min
- Change in BP, 1st day, 1 hr after dose ([2]; 100 mg/kg os, 1st day): -6 mmHg
- Change in HR, 1st day, 1 hr after dose ([2]; 100 mg/kg os, 1st day): +73 b/min
- Change in BP, 1st day, 5 hrs after dose ([2]; 100 mg/kg os, 1st day): -22 mmHg
- Change in HR, 1st day, 5 hrs after dose ([2]; 100 mg/kg os, 1st day): +40 b/min
- Change in BP, 4th day, 1 hr after dose ([2]; 100 mg/kg os, 4th day): -19 mmHg
- Change in HR, 4th day, 1 hr after dose ([2]; 100 mg/kg os, 4th day): +70 b/min
- Change in BP, 4th day, 5 hrs after dose ([2]; 100 mg/kg os, 4th day): -31 mmHg
- Change in HR, 4th day, 5 hrs after dose ([2]; 100 mg/kg os, 4th day): +20 b/min
- Effect on heart rate ([2]; oral, all doses treated (Table 2)): no effect on heart rate
